Test results taken from paper PMC9052077 (Computational and Structural Biotechnology Journal, 2022).
“Also recorded” adds a separate entry of the source. Read-outs that look alike come from different tables or passages of the source.

Test system: HK-2 cells
Assay: cells
Format: cell-based, human
Conditions: for IC50 value for HK-2 cells: 24 h
[1] = Homo sapiens, HK-2, 24 h, HK-2 cells, 24 h exposure, SRB assay, Table 1
[2] = Homo sapiens, HK-2, read-out: Activity IC50 (μM), HK-2 cells, Table 4
[3] = Homo sapiens, HK-2, read-out: Activity pIC50, HK-2 cells (converted), Table 4
[4] = Homo sapiens, HK-2, read-out: Bioactivity (μM), HK-2 cells, Table 3

| Compound | IC50 [1] [µM] | IC50 [2] [µM] | IC50 [3] [µM] | IC50 [4] [µM] | IC50 value for HK-2 cells (HK-2 cells, SRB assay) | IC50 (HK-2 cells, 24 h exposure, SRB assay, Table 1) [µM] | Activity pIC50 (HK-2 cells, Table 4) | Actual value (pIC50) (HK-2 cells, converted from IC50 by eq 2, Table 3) | IC50 (read-out: Activity IC50, HK-2 cells, Table 4) [µM] | IC50 (read-out: Bioactivity, HK-2 cells, Table 3) [µM] |
| --- | --- | --- | --- | --- | --- | --- | --- | --- | --- | --- |
| C/C=C(/C)C(=O)O[C@H]1C(C)=C2[C@H]([C@@H]1OC(=O)CCCCCCC)[C@@](C)(OC(C)=O)C[C@H](OC(=O)CCC)[C@@]1(O)[C@H]2OC(=O)[C@@]1(C)O [Compound 1, Thapsigargin] | 0.18 | 0.18 | 0.182 | 0.18 |  |  |  |  |  |  |
| C[C@@H]1Cc2c(Cl)cc(C(=O)N[C@@H](Cc3ccccc3)C(=O)O)c(O)c2C(=O)O1 [Compound 3, Ochratoxin A] | 46.1 | 46.1 | 45.7 | 46.1 | micromolar of tens digit |  |  |  |  |  |
| C[C@@H](NCCCc1cccc(C(F)(F)F)c1)c1cccc2ccccc12 [Compound 8, Cinacalcet] | 17.1 | 17.1 | 17 | 17.1 | micromolar of tens digit |  |  |  |  |  |
| C=CC[C@@H]1/C=C(\C)C[C@H](C)C[C@H](OC)[C@H]2O[C@@](O)(C(=O)C(=O)N3CCCC[C@H]3C(=O)O[C@H](/C(C)=C/[C@@H]3CC[C@@H](O)[C@H](OC)C3)[C@H](C)[C@@H](O)CC1=O)[C@H](C)C[C@@H]2OC [Compound 9, Tacrolimus] | 49.4 | 49.4 | 49 | 49.4 | micromolar of tens digit |  |  |  |  |  |
| CO[C@@]12[C@H](COC(N)=O)C3=C(C(=O)C(C)=C(N)C3=O)N1C[C@@H]1N[C@@H]12 [Compound 10, Mitomycin C] | 5.04 | 5.04 | 5.01 | 5.04 | unit digits; also recorded: micromolar of tens digit |  |  |  |  |  |
| COc1ccnc(C[S+]([O-])c2nc3ccc(OC(F)F)cc3[nH]2)c1OC (stereo not drawn) [Compound 11, Pantoprazole] | 300 | 300 | 302 | 300 |  |  |  |  |  |  |
| N.N.[Cl][Pt][Cl] [Compound 12, Cisplatin] |  |  |  |  | micromolar of tens digit | 25.4 | 4.59 | 4.59 | 25.4 | 25.4 |
| C[C@@H]1[C@H](O)[C@@H](C)/C=C/C=C/C=C/C=C/C=C/C=C/C=C/[C@H](O[C@@H]2O[C@H](C)[C@@H](O)[C@H](N)[C@@H]2O)C[C@@H]2O[C@](O)(C[C@@H](O)C[C@@H](O)[C@H](O)CC[C@@H](O)C[C@@H](O)CC(=O)O[C@H]1C)C[C@H](O)[C@H]2C(=O)O [Compound 13, Amphotericin B] | 3.7 | 3.7 | 3.72 | 3.7 | unit digits |  |  |  |  |  |
